Experimental data: patent US20240398754A1, “VERATRALDEHYDE, PIPERONYL ALCOHOL, ETHYL 2-AMINO BENZOATE, ISOAMYL CINNAMATE, OR DIETHYL MALONATE AS FOOD ADDITIVES WITH ANTI-INFLAMMATORY PROPERTIES” (NATIONAL UNIVERSITY OF IRELAND, MAYNOOTH, priority 2021, published 2024)

Legend:
Human THP1 cells = experiment: ELISA analysis of IL-10 and TNF expression in media from LPS-stimulated THP1 cells (cytokine release platform); assay type: cell-based; conditions: FIG. 11A-F, compounds at 1 mM, 100 μM and 10 μM for 2 hrs, vs DMSO vehicle
Protocol: FIG. 10: ELISA analysis of IL-10 and TNF expression in media from cells pretreated with DMSO (vehicle) or (A/B) piperonyl acetate and (C/D) piperonyl isobutyrate for 2 hrs and stimulated with LPS for 24 hrs. Human THP1 cells treated with compounds at (1 mM, 100 μM and 10 μM) and LPS […]. All data are presented as the mean±SEM of three or four independent experiments and were subjected to paired Student's t test.
FIG. 11: ELISA analysis of IL-10 and TNF expression in media from cells pretreated with DMSO (vehicle) or (A/B) vanillin, (C/D) ethyl vanillin and (E/F) divanillin for 2 hrs and stimulated with LPS for 24 hrs. Human THP1 cells treated with compounds at (1 mM, 100 μM and 10 μM) and LPS […]. (G) DH82 cells were treated with veratric acid (1 mM, 500 uM, 250 uM, 125 uM, 60 uM, 30 uM) for 2 hrs and stimulated with LPS for 24 hrs. All data are presented as the mean±SEM of three or four independent experiments and were subjected to paired Student's t test.
THP-1 cells were cultured in RPMI supplemented with 10% (v/v) heat inactivated FBS, penicillin G (100 μg/ml) and streptomycin (100 μg/ml) in a 37° C. humidified chamber under a 5% CO2 atmosphere. Cell morphology and confluence, including media acidification colour change were monitored daily. Twice a week, cells were passaged by removal from flask and centrifugation at 400 G. Cells were cultured for a maximum of 25 passages in order to avoid excessive genetic drift. Cells were seeded at 1×10^6/ml.
Cell supernatant or serum samples were collected and stored at −80° C. prior to analysis. 96-well NUNC “Maxisorb” plates were coated with 100 μl capture antibody diluted to a working concentration in PBS. […] The optical density (OD) value of each well was measured at 450 nm with a correction at 590 nm. A ELx800™ microplate reader with Gen5 Data Analysis Software was used to carry out the reading. The sample concentrations were determined by interpolating the sample absorbance from the known concentrations of the standard curve. Standards were assayed in duplicate while samples were analysed in triplicate. […]

COL2A1 = experiment: In vitro arthritis model: DH82 supernatant transferred to canine chondrocytes, COL2A1 mRNA by RT-PCR; assay type: cell-based; conditions: FIG. 14(A); DH82 macrophage cells treated with 500 μM for 2 hrs and LPS (100 μg/ml) 3 hours; media transferred to canine chondrocytes (CNC) 24 hours; compared to LPS alone
Protocol: FIG. 13: (1) DH82 cells are plated and stimulated with the compound, followed by LPS. (2) After 24 hours, TNF has been produced by the cells and (3) This liquid supernatant is removed from the cells and reserved. (4) Chondrocytes are plated and (5) the reserved liquid supernatant containing TNF and other inflammatory cytokines from the DH82 cells is added on top of these cells, thus exposing the cartilage cells to an inflammatory environment, simulating an inflammatory joint. (6) After 24 hours gene expression of COL2A1 is measured.
FIG. 14: (A) DH82 cells were stimulated with DMSO (vehicle) or veratraldehyde (500 μM) for 2 hrs and stimulated with LPS (100 μg/ml) for 3 hours. […] COL2A1 mRNA expression was measured by RT-PCR. (B) Quantitative RT-PCR of mRNA expression of COL2A1 in Canine chondrocytes (CNC) pretreated with DMSO (vehicle), Methyl Isoeugenol, NaOH, Vertic Acid, Folic Acid, Piperonyl Alcohol, Veratraldehyde (500 μM) for 24 hrs. […]
Canine chondrocyte (CNC) cells were cultured in complete CNC media in a 37° C. humidified chamber under a 5% CO2 atmosphere. Cell morphology and confluence were monitored daily. […]
Enriched inflammatory cell supernatant from DH82 cells was prepared by first stimulating seeded DH82 cells with compound, followed by stimulation with LPS for 3 hours. […] After 24 hours, mRNA was harvested from CNC as described above and levels of COL2A1 were assessed. […]

DH82 cells = experiment: ELISA of media from LPS-stimulated DH82 cells; assay type: cell-based, canine; conditions: FIG. 11G, 1 mM, 500 uM, 250 uM, 125 uM, 60 uM, 30 uM for 2 hrs, then LPS for 24 hrs
Protocol: FIG. 3: ELISA analysis of TNF expression in media from cells pretreated with DMSO (vehicle) or Veratraldehyde for 2 hrs and stimulated with LPS for 24 hrs. (A) human THP1 cells treated with Veratraldehyde (200 μM, 100 μM and 50 μM) and LPS (1 mg/ml). (B) human peripheral blood mononuclear cell (PBMC) treated with Veratraldehyde (100 μM) and LPS (100 μg/ml). (C) murine bone-marrow-derived macrophages (BMDMs) isolated from C57BL/6 WT mice treated with Veratraldehyde (100 μM) and LPS (100 μg/ml). (D) Quantitative RT-PCR of mRNA expression of Tnf in PBMCs pretreated with DMSO (vehicle) or veratraldehyde (100 μM) for 2 hrs and stimulated with LPS (100 μg/ml) for 3 hrs. (E and G) TNF was measured from canine macrophage-like cells (DH82) treated with veratraldehyde (1 mM, 500 uM, 200 uM, 100 uM, 50 uM, 10 uM) and LPS for 24 hours by ELISA. (F) Quantitative RT-PCR of mRNA expression of Tnf in DH82 cells pretreated with DMSO (vehicle) or veratraldehyde (500 μM) for 2 hrs and stimulated with LPS (100 μg/ml) for 1.5 and 3 hrs. […] COL2A1 mRNA expression was measured by RT-PCR. […]
DH82 cells were cultured in EMEM supplemented with 10% (v/v) heat inactivated FBS, penicillin G (100 μg/ml) and streptomycin (100 μg/ml) in a 37° C. humidified chamber under a 5% CO2 atmosphere. Cell morphology and confluence were monitored daily. […]

| Structure (SMILES) | anti-inflammatory effect (ELISA analysis of IL-10 and TNF expression in media) (Human THP1 cells) | further results |
| --- | --- | --- |
| COc1cc(C=O)ccc1O [vanillin] | does not show an anti-inflammatory effect | – |
| COc1ccc(C=O)cc1OC [veratraldehyde, 3,4-dimethoxybenzaldehyde] | – | levels of COL2A1 (mRNA expression) in chondrocyte cells (COL2A1): significant restoration |
| COc1cc(C=O)cc(-c2cc(C=O)cc(OC)c2O)c1O [divanillin] | does not show an anti-inflammatory effect | – |
| CCOc1cc(C=O)ccc1O [ethyl vanillin] | does not show an anti-inflammatory effect | – |
| COc1ccc(C(=O)O)cc1OC [veratric acid] | – | anti-inflammatory effect (ELISA) (DH82 cells): does not show an anti-inflammatory effect |
